Legend:
[1] = test system: Glomerella lacenarium (Colletotrichum lacenarium); assay: Glomerella lacenarium (Colletotrichum lacenarium) liquid culture / cucumber / preventative (anthracnose); assay type: cell-based; settings: 20 ppm, liquid culture in PDB, 24° C., inhibition of growth measured photometrically 3 to 4 days after application, vs untreated, read-out: disease control
In short: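 Cryopreserved conidia in potato dextrose broth were added to test compound in a 96-well microtiter plate and incubated at 24 °C. Growth inhibition read photometrically 3–4 days after application, as percent activity versus untreated check.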

[2] = test system: Puccinia recondita f. Sp. Tritici; assay: Puccinia recondita f. sp. tritici / wheat / leaf disc preventative (brown rust); assay type: in vivo; settings: foliar, 200 ppm in the applied formulation, wheat leaf segments cv. Kanzler, inoculated 1 day after application, vs untreated, 7 to 9 days after application, read-out: disease control
In short: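 Preventative leaf-segment test on wheat cv. Kanzler: formulated compound diluted in water was sprayed onto segments on agar, with spore inoculation 1 day later. Incubated at 19° C, 75% rh, 12 h light/12 h dark; percent disease control versus untreated scored 7 to 9 days after application.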

Phakopsora pachyrhizi = Phakopsora pachyrhizi / soybean / leaf disc preventative (Asian soybean rust); assay type: in vivo; settings: foliar, 200 ppm in the applied formulation, soybean leaf disks, inoculated one day after application, vs untreated, 12 to 14 days after application, read-out: disease control
In short: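 Soybean leaf discs on water agar sprayed with formulated compound diluted in water, then inoculated one day later with spore suspension on the lower surface. Held 24-36 h dark at 20 °C, 75% rh, then 12 h light/day; percent disease control versus untreated scored 12-14 days after application.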

Uromyces viciae-fabae = Uromyces viciae-fabae / field bean / leaf disc preventative (faba-bean rust); assay type: in vivo; settings: foliar, 288 h, 100 ppm in the applied formulation, field bean leaf discs, inoculated two hours after application, vs untreated, 12 days after application, read-out: disease control
Method: Leaf disks or leaf segments of various plant species are cut from plants grown in a greenhouse. The cut leaf disks or segments are placed in multiwell plates (24-well format) onto water agar. The leaf disks are sprayed with a test solution before (preventative) or after (curative) inoculation. Compounds to be tested are prepared as DMSO solutions (max. 10 mg/ml) which are diluted to the appropriate concentration with 0.025% Tween20 just before spraying. The inoculated leaf disks or segments are incubated under defined conditions (temperature, relative humidity, light, etc.) according to the respective test system. A single evaluation of disease level is carried out 3 to 14 days after inoculation, depending on the pathosystem. Percent disease control relative to the untreated check leaf disks or segments is then calculated.
Example 5: Fungicidal Activity Against Uromyces viciae-fabael Field Bean/Leaf Disc Preventative (Faba-Bean Rust)
Field bean leaf discs are placed on water agar in multiwell plates (96-well format) and 10 μl of the Formulated test compound diluted in acetone and a spreader pipetted onto the leaf disc. Two hours after application leaf discs are inoculated by spraying a spore suspension on the lower leaf surface. The leaf discs are incubated in a climate cabinet at 22° C. with 18 hour day and 70% relative humidity. The activity of a compound is assessed as percent disease control compared to untreated when an appropriate level of disease damage appears in untreated check leaf disks (12 days after application).
The following compounds at 100 ppm in the applied Formulation give at least 80% disease control in this test when compared to untreated control leaf discs under the same conditions, which show extensive disease development.

[3] = test system: Puccinia recondita f. Sp. Tritici; assay: Puccinia recondita f. sp. tritici / wheat / leaf disc curative (brown rust); assay type: in vivo; settings: foliar, 200 ppm in the applied formulation, wheat leaf segments cv. Kanzler, compound applied 1 day after inoculation, vs untreated, 6 to 8 days after application, read-out: disease control
In short: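 Wheat leaf segments (cv. Kanzler) on agar inoculated with brown rust spores, held dark at 19 °C/75% RH, then sprayed 1 day post-inoculation with formulated compound diluted in water (curative). Incubated at 19 °C/75% RH, 12 h light/12 h dark; percent disease control versus untreated scored 6–8 days after application.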

Row | melting point [°C] | SMILES | inhibition of growth at 20 ppm [1] [%] | pest or weed control at 200 ppm [2] [%] | pest or weed control at 200 ppm (Phakopsora pachyrhizi) [%] | pest or weed control at 100 ppm (Uromyces viciae-fabae) [%] | pest or weed control at 200 ppm [3] [%]
1 | 83 to 87 | CON(C)C(=O)Nc1ccc(-c2noc(C(F)(F)F)n2)cn1 [Compound 1.64, 1-methoxy-1-methyl-3-[5-[5-(trifluoromethyl)-1,2,4-oxadiazol-3-yl]-2-pyridyl]urea] | ≥ 80 | ≥ 80 | – | – | –
2 | – | CC(C)NC(=O)c1c(F)cccc1C(=O)Nc1ccc(-c2noc(C(F)(F)F)n2)cc1 [Compound 1.29, 3-fluoro-N2-isopropyl-N1-[4-[5-(trifluoromethyl)-1,2,4-oxadiazol-3-yl]phenyl] phthalamide] | ≥ 80 | ≥ 80 | ≥ 80 | ≥ 80 | –
3 | – | O=C(Nc1ccc(-c2noc(C(F)(F)F)n2)cc1)c1cncc(N2CCOCC2)n1 [Compound 1.2, 6-morpholino-N-[4-[5-(trifluoromethyl)-1,2,4-oxadiazol-3-yl]phenyl]pyrazine-2-carboxamide] | – | – | ≥ 80 | ≥ 80 | –
4 | 140 to 143 | O=C(NOCc1ccccc1F)Nc1ccc(-c2noc(C(F)(F)F)n2)cc1 [Compound 1.127, 1-[(2-fluorophenyl)methoxy]-3-[4-[5-(trifluoromethyl)-1,2,4-oxadiazol-3-yl]phenyl]urea] | ≥ 80 | – | – | – | –
5 | – | CC12CCC(C(=O)Nc3ccc(-c4noc(C(F)(F)F)n4)cc3)(OC1=O)C2(C)C (stereo not shown) [Compound 1.4, 1,7,7-trimethyl-2-oxo-N-[4-[5-(trifluoromethyl)-1,2,4-oxadiazol-3-yl]phenyl]-3-oxabicyclo[2.2.1] heptane-4-carboxamide] | ≥ 80 | – | ≥ 80 | ≥ 80 | –
6 | – | CC(=O)N(CC(=O)NC(C)(C)C)c1ccc(-c2noc(C(F)(F)F)n2)cc1 [Compound 1.56, 2-[N-acetyl-4-[5-(trifluoromethyl)-1,2,4-oxadiazol-3-yl]anilino]-N-tert-butyl-acetamide] | ≥ 80 | ≥ 80 | – | ≥ 80 | ≥ 80
7 | – | COc1cc(CCC(=O)Nc2ccc(-c3noc(C(F)(F)F)n3)cc2)cc(OC)c1OC [Compound 1.13, N-[4-[5-(trifluoromethyl)-1,2,4-oxadiazol-3-yl]phenyl]-3-(3,4,5-trimethoxyphenyl) propanamide] | ≥ 80 | ≥ 80 | – | ≥ 80 | –
8 | – | O=C(Nc1ccc(-c2noc(C(F)(F)F)n2)cc1)C(F)c1ccccc1 (stereo not shown) [Compound 1.16, 2-fluoro-2-phenyl-N-[4-[5-(trifluoromethyl)-1,2,4-oxadiazol-3-yl]phenyl]acetamide] | ≥ 80 | ≥ 80 | ≥ 80 | ≥ 80 | –
9 | – | CN(C(=O)C1CCC1)c1ccc(-c2noc(C(F)(F)F)n2)cc1 [Compound 2.25, N-methyl-N-[4-[5-(trifluoromethyl)-1,2,4-oxadiazol-3-yl]phenyl]cyclobutane-carboxamide] | ≥ 80 | ≥ 80 | ≥ 80 | ≥ 80 | ≥ 80
10 | 117 to 120 | CON(CC1CC1)C(=O)Nc1ccc(-c2noc(C(F)(F)F)n2)cc1 [Compound 1.69, 1-(cyclopropylmethyl)-1-methoxy-3-[4-[5-(trifluoromethyl)-1,2,4-oxadiazol-3-yl]phenyl]urea] | ≥ 80 | – | – | – | –
11 | – | COc1cc(C(=O)Nc2ccc(-c3noc(C(F)(F)F)n3)cc2)cc(OC)c1OC [Compound 1.6, 3,4,5-trimethoxy-N-[4-[5-(trifluoromethyl)-1,2,4-oxadiazol-3-yl]phenyl]benzamide] | – | ≥ 80 | ≥ 80 | ≥ 80 | –
12 | – | CCC(=O)N(CC(=O)NC(C)(C)C)c1ccc(-c2noc(C(F)(F)F)n2)cc1 [Compound 1.57, N-[2-(tert-butylamino)-2-oxo-ethyl]-N-[4-[5-(trifluoromethyl)-1,2,4-oxadiazol-3-yl]phenyl] propanamide] | ≥ 80 | ≥ 80 | – | ≥ 80 | –
13 | – | COC1=CC(=O)CC(C(=O)Nc2ccc(-c3noc(C(F)(F)F)n3)cc2)C1 (stereo not shown) [Compound 1.31, 3-methoxy-5-oxo-N-[4-[5-(trifluoromethyl)-1,2,4-oxadiazol-3-yl]phenyl]cyclohex-3-ene-1-carboxamide] | ≥ 80 | ≥ 80 | ≥ 80 | ≥ 80 | –
14 | – | COCC(=O)N(CC(=O)NC(C)(C)C)c1ccc(-c2noc(C(F)(F)F)n2)cc1 [Compound 1.58, N-tert-butyl-2-[N-(2-methoxyacetyl)-4-[5-(trifluoromethyl)-1,2,4-oxadiazol-3-yl]anilino]acetamide] | – | ≥ 80 | – | ≥ 80 | –
15 | – | N#Cc1cc(F)c(C(=O)Nc2ccc(-c3noc(C(F)(F)F)n3)cc2)c(F)c1 [Compound 1.15, 4-cyano-2,6-difluoro-N-[4-[5-(trifluoromethyl)-1,2,4-oxadiazol-3-yl]phenyl]benzamide] | ≥ 80 | – | – | ≥ 80 | –
16 | – | O=C(CCC(F)(F)F)Nc1ccc(-c2noc(C(F)(F)F)n2)cc1 [Compound 1.20, 4,4,4-trifluoro-N-[4-[5-(trifluoromethyl)-1,2,4-oxadiazol-3-yl]phenyl]butanamide] | ≥ 80 | ≥ 80 | ≥ 80 | ≥ 80 | –
17 | – | O=C(Cn1cncn1)Nc1ccc(-c2noc(C(F)(F)F)n2)cc1 [Compound 1.23, 2-(1,2,4-triazol-1-yl)-N-[4-[5-(trifluoromethyl)-1,2,4-oxadiazol-3-yl]phenyl]acetamide] | ≥ 80 | ≥ 80 | – | ≥ 80 | –
18 | – | C#CC(C)(C)C(=O)Nc1ccc(-c2noc(C(F)(F)F)n2)cc1 [Compound 1.5, 2,2-dimethyl-N-[4-[5-(trifluoromethyl)-1,2,4-oxadiazol-3-yl]phenyl]but-3-ynamide] | ≥ 80 | ≥ 80 | ≥ 80 | ≥ 80 | ≥ 80
19 | – | CS(=O)(=O)CC(=O)Nc1ccc(-c2noc(C(F)(F)F)n2)cc1 [Compound 1.10, 2-methylsulfonyl-N-[4-[5-(trifluoromethyl)-1,2,4-oxadiazol-3-yl]phenyl]acetamide] | ≥ 80 | – | – | ≥ 80 | –
20 | – | CC(=O)N(C(C)=O)c1ccc(-c2noc(C(F)(F)F)n2)cn1 [Compound 1.45, N-acetyl-N-[5-[5-(trifluoromethyl)-1,2,4-oxadiazol-3-yl]-2-pyridyl]acetamide] | ≥ 80 | ≥ 80 | ≥ 80 | ≥ 80 | ≥ 80
21 | – | CC(C)(C(=O)Nc1ccc(-c2noc(C(F)(F)F)n2)cc1)c1ncc(Cl)cc1Cl [Compound 1.32, 2-(3,5-dichloro-2-pyridyl)-2-methyl-N-[4-[5-(trifluoromethyl)-1,2,4-oxadiazol-3-yl]phenyl] propanamide] | – | ≥ 80 | – | ≥ 80 | –

Source: patent US20200022370A1, “MICROBIOCIDAL OXADIAZOLE DERIVATIVES” (SYNGENTA PARTICIPATIONS AG, priority 2016, published 2020)
